Legend:
chickweed = assay: Test C postemergence; assay type: in vivo, Stellaria media; conditions: for Plant response rating (scale of 0 to 100 where 0 is no effect and 100 is complete control), Chickweed: Postemergence, 31 g ai/ha, visually evaluated after 13 to 15 days; for Chickweed plant response rating / Plant response rating, Chickweed: postemergence; for Chickweed plant response rating: 62 g ai/ha, scale 0 to 100
In short: (§1)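 In this greenhouse assay, seeded soil (loam plus sand) or emerged seedlings in peat-vermiculite medium were treated with formulated compound. Roughly two weeks later (13–15 days), each species was scored visually relative to controls, from 0 for no effect to 100 for complete control.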

crabgrass, large = assay: Test C postemergence; assay type: in vivo, Digitaria sanguinalis; conditions: for Plant response rating (scale of 0 to 100 where 0 is no effect and 100 is complete control), Crabgrass, Large: Postemergence, 31 g ai/ha, visually evaluated after 13 to 15 days; for Crabgrass, Large plant response rating / Plant response rating, Crabgrass, Large: postemergence; for Crabgrass, Large plant response rating: 62 g ai/ha, scale 0 to 100
In short: as §1

blackgrass = assay: Test C postemergence; assay type: in vivo, Alopecurus myosuroides; conditions: for Plant response rating (scale of 0 to 100 where 0 is no effect and 100 is complete control), Blackgrass: Postemergence, 31 g ai/ha, visually evaluated after 13 to 15 days; for Blackgrass plant response rating / Plant response rating, Blackgrass: postemergence; for Blackgrass plant response rating: 62 g ai/ha, scale 0 to 100
In short: as §1

oat, wild = assay: Test C postemergence; assay type: in vivo, Avena fatua; conditions: for Plant response rating (scale of 0 to 100 where 0 is no effect and 100 is complete control), Oat, Wild: Postemergence, 31 g ai/ha, visually evaluated after 13 to 15 days; for Oat, Wild plant response rating / Plant response rating, Oat, Wild: postemergence; for Oat, Wild plant response rating: 62 g ai/ha, scale 0 to 100
In short: as §1

lambsquarters [1] = assay: Test C preemergence; assay type: in vivo, Chenopodium album; conditions: for Plant response rating (scale of 0 to 100), Lambsquarters: Preemergence, 250 g ai/ha; for Lambsquarters plant response rating / Plant response rating, Lambsquarters: preemergence; for Plant response rating, Lambsquarters: 62 g ai/ha, scale 0 to 100, 0 = no effect, 100 = complete control
In short: as §1

waterhemp = assay: Test C postemergence; assay type: in vivo, Amaranthus rudis; conditions: for Plant response rating (scale of 0 to 100 where 0 is no effect and 100 is complete control), Waterhemp: Postemergence, 31 g ai/ha, visually evaluated after 13 to 15 days; for Waterhemp plant response rating / Plant response rating, Waterhemp: postemergence; for Waterhemp plant response rating: 62 g ai/ha, scale 0 to 100
In short: as §1

kochia = assay: Test C postemergence; assay type: in vivo, Kochia scoparia; conditions: for Plant response rating (scale of 0 to 100 where 0 is no effect and 100 is complete control), Kochia: Postemergence, 31 g ai/ha, visually evaluated after 13 to 15 days; for Kochia plant response rating / Plant response rating, Kochia: postemergence; for Kochia plant response rating: 62 g ai/ha, scale 0 to 100
In short: as §1

pigweed = assay: Test C postemergence; assay type: in vivo, Amaranthus retroflexus; conditions: for Plant response rating (scale of 0 to 100 where 0 is no effect and 100 is complete control), Pigweed: Postemergence, 31 g ai/ha, visually evaluated after 13 to 15 days; for Pigweed plant response rating / Plant response rating, Pigweed: postemergence; for Pigweed plant response rating: 62 g ai/ha, scale 0 to 100
In short: as §1

velvetleaf = assay: Test C postemergence; assay type: in vivo, Abutilon theophrasti; conditions: for Plant response rating (scale of 0 to 100 where 0 is no effect and 100 is complete control), Velvetleaf: Postemergence, 31 g ai/ha, visually evaluated after 13 to 15 days; for Velvetleaf plant response rating / Plant response rating, Velvetleaf: postemergence; for Velvetleaf plant response rating: 62 g ai/ha, scale 0 to 100
In short: as §1

wheat = assay: Test C postemergence; assay type: in vivo, Triticum aestivum; conditions: for Plant response rating (scale of 0 to 100 where 0 is no effect and 100 is complete control), Wheat: Postemergence, 31 g ai/ha, visually evaluated after 13 to 15 days; for Wheat plant response rating / Plant response rating, Wheat: postemergence; for Wheat plant response rating: 62 g ai/ha, scale 0 to 100
In short: as §1

galium = assay: Test C postemergence; assay type: in vivo, Galium aparine; conditions: for Plant response rating (scale of 0 to 100 where 0 is no effect and 100 is complete control), Galium: Postemergence, 31 g ai/ha, visually evaluated after 13 to 15 days; for Galium plant response rating / Plant response rating, Galium: postemergence; for Galium plant response rating: 62 g ai/ha, scale 0 to 100
In short: as §1

morningglory = assay: Test C postemergence; assay type: in vivo, Ipomoea coccinea; conditions: for Plant response rating (scale of 0 to 100 where 0 is no effect and 100 is complete control), Morningglory: Postemergence, 31 g ai/ha, visually evaluated after 13 to 15 days; for Morningglory plant response rating / Plant response rating, Morningglory: postemergence; for Morningglory plant response rating: 62 g ai/ha, scale 0 to 100
In short: as §1

lambsquarters [2] = assay: Test C postemergence; assay type: in vivo, Chenopodium album; conditions: for Plant response rating (scale of 0 to 100 where 0 is no effect and 100 is complete control), Lambsquarters: Postemergence, 31 g ai/ha, visually evaluated after 13 to 15 days; for Lambsquarters plant response rating / Plant response rating, Lambsquarters: postemergence; for Lambsquarters plant response rating: 62 g ai/ha, scale 0 to 100
In short: as §1

barnyardgrass = assay: Test C postemergence; assay type: in vivo, Echinochloa crus-galli; conditions: for Plant response rating (scale of 0 to 100 where 0 is no effect and 100 is complete control), Barnyardgrass: Postemergence, 31 g ai/ha, visually evaluated after 13 to 15 days; for Barnyardgrass plant response rating / Plant response rating, Barnyardgrass: postemergence; for Barnyardgrass plant response rating: 62 g ai/ha, scale 0 to 100
In short: as §1

[3] = 250 g ai/ha, scale 0 to 100 (0 no effect, 100 complete control)
[4] = 125 g ai/ha, scale 0 to 100, 0 no effect, 100 complete control
[5] = 31 g ai/ha, visual rating, scale 0 to 100 (0 no effect, 100 complete control), 13 to 15 days
[6] = 125 g ai/ha, scale 0 to 100, 0 is no effect, 100 is complete control

## CCc1cc(C(=O)NC(C)C)nn1Cc1ccnc(C(F)(F)F)c1 [Compound 103]
chickweed
  Plant response rating (scale of 0 to 100 where 0 is no effect and 100 is complete control), Chickweed: 50
  Chickweed plant response rating: 60
chickweed; [3]
  Plant response rating, Chickweed: 85
chickweed; [4]
  Plant response rating, Chickweed: 75
crabgrass, large
  Plant response rating (scale of 0 to 100 where 0 is no effect and 100 is complete control), Crabgrass, Large: 10
  Crabgrass, Large plant response rating: 15
crabgrass, large; [3]
  Plant response rating, Crabgrass, Large: 85
crabgrass, large; [4]
  Plant response rating, Crabgrass, Large: 35
blackgrass
  Plant response rating (scale of 0 to 100 where 0 is no effect and 100 is complete control), Blackgrass: 10
  Blackgrass plant response rating: 15
blackgrass; [3]
  Plant response rating, Blackgrass: 60
blackgrass; [4]
  Plant response rating, Blackgrass: 40
oat, wild
  Plant response rating (scale of 0 to 100 where 0 is no effect and 100 is complete control), Oat, Wild: 5
  Oat, Wild plant response rating: 5
oat, wild; [3]
  Plant response rating, Oat, Wild: 50
oat, wild; [4]
  Plant response rating, Oat, Wild: 50
Lambsquarters [1]
  Plant response rating (scale of 0 to 100), Lambsquarters: 100
Lambsquarters [1]; [5]
  Lambsquarters plant response rating: 100
Lambsquarters [1]; 13 to 15 days
  Plant response rating, Lambsquarters: 100
Lambsquarters [1]; [6]
  Lambsquarters plant response rating: 100
waterhemp
  Plant response rating (scale of 0 to 100 where 0 is no effect and 100 is complete control), Waterhemp: 55
  Waterhemp plant response rating: 65
waterhemp; [3]
  Plant response rating, Waterhemp: 90
waterhemp; [4]
  Plant response rating, Waterhemp: 65
kochia
  Plant response rating (scale of 0 to 100 where 0 is no effect and 100 is complete control), Kochia: 85
  Kochia plant response rating: 85
kochia; [3]
  Plant response rating, Kochia: 90
kochia; [4]
  Plant response rating, Kochia: 85
pigweed
  Plant response rating (scale of 0 to 100 where 0 is no effect and 100 is complete control), Pigweed: 50
  Pigweed plant response rating: 50
pigweed; [3]
  Plant response rating, Pigweed: 80
pigweed; [4]
  Plant response rating, Pigweed: 65
velvetleaf
  Plant response rating (scale of 0 to 100 where 0 is no effect and 100 is complete control), Velvetleaf: 25
  Velvetleaf plant response rating: 40
velvetleaf; [3]
  Plant response rating, Velvetleaf: 55
velvetleaf; [4]
  Plant response rating, Velvetleaf: 45
wheat
  Plant response rating (scale of 0 to 100 where 0 is no effect and 100 is complete control), Wheat: 0
  Wheat plant response rating: 5
wheat; [3]
  Plant response rating, Wheat: 15
wheat; [4]
  Plant response rating, Wheat: 5
galium
  Plant response rating (scale of 0 to 100 where 0 is no effect and 100 is complete control), Galium: 50
  Galium plant response rating: 70
galium; [3]
  Plant response rating, Galium: 80
galium; [4]
  Plant response rating, Galium: 75
morningglory
  Plant response rating (scale of 0 to 100 where 0 is no effect and 100 is complete control), Morningglory: 75
  Morningglory plant response rating: 75
morningglory; [3]
  Plant response rating, Morningglory: 100
morningglory; [4]
  Plant response rating, Morningglory: 85
Lambsquarters [2]
  Plant response rating (scale of 0 to 100 where 0 is no effect and 100 is complete control), Lambsquarters: 65
  Lambsquarters plant response rating: 70
Lambsquarters [2]; [3]
  Plant response rating, Lambsquarters: 90
Lambsquarters [2]; [4]
  Plant response rating, Lambsquarters: 75
barnyardgrass
  Plant response rating (scale of 0 to 100 where 0 is no effect and 100 is complete control), Barnyardgrass: 10
  Barnyardgrass plant response rating: 15
barnyardgrass; [3]
  Plant response rating, Barnyardgrass: 95
barnyardgrass; [4]
  Plant response rating, Barnyardgrass: 15

## CCOc1cc(C(=O)NCC(F)(F)F)nn1Cc1ccnc(C(F)(F)F)c1 [Compound 104]
chickweed
  Plant response rating (scale of 0 to 100 where 0 is no effect and 100 is complete control), Chickweed: 55
  Chickweed plant response rating: 70
chickweed; [3]
  Plant response rating, Chickweed: 90
chickweed; [4]
  Plant response rating, Chickweed: 80
crabgrass, large
  Plant response rating (scale of 0 to 100 where 0 is no effect and 100 is complete control), Crabgrass, Large: 5
  Crabgrass, Large plant response rating: 70
crabgrass, large; [3]
  Plant response rating, Crabgrass, Large: 95
crabgrass, large; [4]
  Plant response rating, Crabgrass, Large: 75
blackgrass
  Plant response rating (scale of 0 to 100 where 0 is no effect and 100 is complete control), Blackgrass: 10
  Blackgrass plant response rating: 10
blackgrass; [3]
  Plant response rating, Blackgrass: 80
blackgrass; [4]
  Plant response rating, Blackgrass: 40
oat, wild
  Plant response rating (scale of 0 to 100 where 0 is no effect and 100 is complete control), Oat, Wild: 5
  Oat, Wild plant response rating: 15
oat, wild; [3]
  Plant response rating, Oat, Wild: 85
oat, wild; [4]
  Plant response rating, Oat, Wild: 35
Lambsquarters [1]
  Plant response rating (scale of 0 to 100), Lambsquarters: 100
Lambsquarters [1]; [5]
  Lambsquarters plant response rating: 98
Lambsquarters [1]; 13 to 15 days
  Plant response rating, Lambsquarters: 98
Lambsquarters [1]; [6]
  Lambsquarters plant response rating: 100
waterhemp
  Plant response rating (scale of 0 to 100 where 0 is no effect and 100 is complete control), Waterhemp: 35
  Waterhemp plant response rating: 85
waterhemp; [3]
  Plant response rating, Waterhemp: 98
kochia
  Plant response rating (scale of 0 to 100 where 0 is no effect and 100 is complete control), Kochia: 85
  Kochia plant response rating: 90
kochia; [3]
  Plant response rating, Kochia: 90
kochia; [4]
  Plant response rating, Kochia: 90
pigweed
  Plant response rating (scale of 0 to 100 where 0 is no effect and 100 is complete control), Pigweed: 50
  Pigweed plant response rating: 85
pigweed; [3]
  Plant response rating, Pigweed: 98
pigweed; [4]
  Plant response rating, Pigweed: 95
velvetleaf
  Plant response rating (scale of 0 to 100 where 0 is no effect and 100 is complete control), Velvetleaf: 25
  Velvetleaf plant response rating: 40
velvetleaf; [3]
  Plant response rating, Velvetleaf: 80
velvetleaf; [4]
  Plant response rating, Velvetleaf: 65
wheat
  Plant response rating (scale of 0 to 100 where 0 is no effect and 100 is complete control), Wheat: 5
  Wheat plant response rating: 10
wheat; [3]
  Plant response rating, Wheat: 25
wheat; [4]
  Plant response rating, Wheat: 10
galium
  Plant response rating (scale of 0 to 100 where 0 is no effect and 100 is complete control), Galium: 60
  Galium plant response rating: 60
galium; [3]
  Plant response rating, Galium: 85
galium; [4]
  Plant response rating, Galium: 85
morningglory
  Plant response rating (scale of 0 to 100 where 0 is no effect and 100 is complete control), Morningglory: 0
  Morningglory plant response rating: 80
morningglory; [3]
  Plant response rating, Morningglory: 98
morningglory; [4]
  Plant response rating, Morningglory: 95
Lambsquarters [2]
  Plant response rating (scale of 0 to 100 where 0 is no effect and 100 is complete control), Lambsquarters: 80
  Lambsquarters plant response rating: 95
Lambsquarters [2]; [3]
  Plant response rating, Lambsquarters: 95
Lambsquarters [2]; [4]
  Plant response rating, Lambsquarters: 95
barnyardgrass
  Plant response rating (scale of 0 to 100 where 0 is no effect and 100 is complete control), Barnyardgrass: 5
  Barnyardgrass plant response rating: 5
barnyardgrass; [3]
  Plant response rating, Barnyardgrass: 90
barnyardgrass; [4]
  Plant response rating, Barnyardgrass: 45
